# Laboratory results from patent publication US12258327B2, “5-membered heteroaryl-containing aminopyridine compounds as EGFR inhibitors” (YUHAN CORPORATION, priority 2021, dated 2025).
# Where two headings read alike, the source gives them in different places.
# Key:
# EGFR del19/T790M/C797S = EGFR del19/T790M/C797S (Homo sapiens, UniProt P00533, C797S/DEL746-750/T790M); assay: Biochemical EGFR kinase assay (Lance Ultra TR-FRET), triple mutant del19/T790M/C797S
# Outline: (§1)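 In this biochemical assay, phosphorylation after a one-hour room-temperature reaction was detected with europium-labelled anti-phosphopeptide antibody at 2 nM final concentration.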
# EGFR L858R/T790M/C797S = EGFR L858R/T790M/C797S (Homo sapiens, UniProt P00533, C797S/L858R/T790M); assay: Biochemical EGFR kinase assay (Lance Ultra TR-FRET), triple mutant L858R/T790M/C797S
# Outline: as §1
# EGFR del19/C797S = EGFR del19/C797S (Homo sapiens, UniProt P00533, C797S/DEL746-750); assay: Biochemical EGFR kinase assay (Lance Ultra TR-FRET), double mutant del19/C797S
# Sequence of EGFR del19/C797S (P00533 with tags, fused parts or gaps DEL746-750/C797S): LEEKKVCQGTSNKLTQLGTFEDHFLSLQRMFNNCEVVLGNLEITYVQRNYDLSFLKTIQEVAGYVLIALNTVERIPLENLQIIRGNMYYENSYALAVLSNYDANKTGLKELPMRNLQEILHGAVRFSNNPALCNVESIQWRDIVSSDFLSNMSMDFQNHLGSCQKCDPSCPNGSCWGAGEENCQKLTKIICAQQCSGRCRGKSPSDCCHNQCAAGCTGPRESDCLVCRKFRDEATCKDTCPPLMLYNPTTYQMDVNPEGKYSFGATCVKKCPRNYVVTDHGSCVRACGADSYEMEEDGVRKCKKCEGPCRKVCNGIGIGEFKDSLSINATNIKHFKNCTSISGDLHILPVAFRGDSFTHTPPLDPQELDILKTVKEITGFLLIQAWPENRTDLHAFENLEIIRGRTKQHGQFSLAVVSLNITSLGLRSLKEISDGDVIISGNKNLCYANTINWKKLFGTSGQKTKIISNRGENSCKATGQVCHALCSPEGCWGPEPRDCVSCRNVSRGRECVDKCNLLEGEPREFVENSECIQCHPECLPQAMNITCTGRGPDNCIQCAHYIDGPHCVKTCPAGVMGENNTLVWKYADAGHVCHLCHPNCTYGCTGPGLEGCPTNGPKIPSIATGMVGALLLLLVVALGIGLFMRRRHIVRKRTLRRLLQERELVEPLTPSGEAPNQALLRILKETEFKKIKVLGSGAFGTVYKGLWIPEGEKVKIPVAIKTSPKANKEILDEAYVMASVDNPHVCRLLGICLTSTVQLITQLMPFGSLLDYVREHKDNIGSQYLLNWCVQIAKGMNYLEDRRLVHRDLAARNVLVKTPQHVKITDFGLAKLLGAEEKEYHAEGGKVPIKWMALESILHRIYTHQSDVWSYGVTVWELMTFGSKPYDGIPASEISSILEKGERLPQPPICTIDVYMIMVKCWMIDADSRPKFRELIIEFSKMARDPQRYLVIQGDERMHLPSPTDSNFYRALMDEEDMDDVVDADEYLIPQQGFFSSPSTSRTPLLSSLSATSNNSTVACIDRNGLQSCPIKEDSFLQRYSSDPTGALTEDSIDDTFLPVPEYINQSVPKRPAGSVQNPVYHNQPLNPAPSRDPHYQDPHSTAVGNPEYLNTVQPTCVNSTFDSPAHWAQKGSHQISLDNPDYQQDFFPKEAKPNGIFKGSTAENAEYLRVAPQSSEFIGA
# Outline: as §1
# EGFR L858R/C797S = EGFR L858R/C797S (Homo sapiens, UniProt P00533, C797S/L858R); assay: Biochemical EGFR kinase assay (Lance Ultra TR-FRET), double mutant L858R/C797S
# Sequence of EGFR L858R/C797S (P00533 25-1210 C797S/L858R): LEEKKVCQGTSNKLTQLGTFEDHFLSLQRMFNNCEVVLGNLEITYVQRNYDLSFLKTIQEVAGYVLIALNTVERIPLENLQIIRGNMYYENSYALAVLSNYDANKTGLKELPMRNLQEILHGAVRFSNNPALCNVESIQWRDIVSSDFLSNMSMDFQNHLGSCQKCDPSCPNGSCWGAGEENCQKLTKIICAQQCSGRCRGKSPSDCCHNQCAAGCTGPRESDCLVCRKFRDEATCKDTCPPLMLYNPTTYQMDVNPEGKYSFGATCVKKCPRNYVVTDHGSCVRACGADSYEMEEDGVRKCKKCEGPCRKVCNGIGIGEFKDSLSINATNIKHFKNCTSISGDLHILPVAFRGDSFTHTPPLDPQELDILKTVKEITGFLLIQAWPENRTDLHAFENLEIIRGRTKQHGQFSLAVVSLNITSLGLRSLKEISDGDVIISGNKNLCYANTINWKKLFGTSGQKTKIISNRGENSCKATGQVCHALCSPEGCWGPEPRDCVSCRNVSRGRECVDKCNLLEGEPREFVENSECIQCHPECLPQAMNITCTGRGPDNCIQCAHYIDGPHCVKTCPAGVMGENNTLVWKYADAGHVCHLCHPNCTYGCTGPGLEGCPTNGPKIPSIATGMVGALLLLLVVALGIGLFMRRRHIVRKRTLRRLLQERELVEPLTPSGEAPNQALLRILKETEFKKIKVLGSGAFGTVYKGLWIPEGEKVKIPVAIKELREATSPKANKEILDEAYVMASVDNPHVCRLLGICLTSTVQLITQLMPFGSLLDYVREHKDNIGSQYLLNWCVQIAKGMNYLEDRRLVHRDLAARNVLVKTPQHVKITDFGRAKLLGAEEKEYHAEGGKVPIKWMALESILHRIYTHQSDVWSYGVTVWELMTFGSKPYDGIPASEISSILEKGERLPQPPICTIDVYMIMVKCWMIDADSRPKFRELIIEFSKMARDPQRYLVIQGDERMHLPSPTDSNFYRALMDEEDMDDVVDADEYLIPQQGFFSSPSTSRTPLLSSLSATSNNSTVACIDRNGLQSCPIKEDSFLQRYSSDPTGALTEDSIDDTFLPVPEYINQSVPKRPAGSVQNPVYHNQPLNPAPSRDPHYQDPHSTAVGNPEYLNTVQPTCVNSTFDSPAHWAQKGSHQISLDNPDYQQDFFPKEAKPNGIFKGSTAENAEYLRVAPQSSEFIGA
# Outline: as §1
# EGFR wildtype (WT) = EGFR wildtype (WT) (Homo sapiens, UniProt P00533); assay: Biochemical EGFR kinase assay (Lance Ultra TR-FRET), wildtype
# Sequence of EGFR wildtype (WT) (P00533 25-1210): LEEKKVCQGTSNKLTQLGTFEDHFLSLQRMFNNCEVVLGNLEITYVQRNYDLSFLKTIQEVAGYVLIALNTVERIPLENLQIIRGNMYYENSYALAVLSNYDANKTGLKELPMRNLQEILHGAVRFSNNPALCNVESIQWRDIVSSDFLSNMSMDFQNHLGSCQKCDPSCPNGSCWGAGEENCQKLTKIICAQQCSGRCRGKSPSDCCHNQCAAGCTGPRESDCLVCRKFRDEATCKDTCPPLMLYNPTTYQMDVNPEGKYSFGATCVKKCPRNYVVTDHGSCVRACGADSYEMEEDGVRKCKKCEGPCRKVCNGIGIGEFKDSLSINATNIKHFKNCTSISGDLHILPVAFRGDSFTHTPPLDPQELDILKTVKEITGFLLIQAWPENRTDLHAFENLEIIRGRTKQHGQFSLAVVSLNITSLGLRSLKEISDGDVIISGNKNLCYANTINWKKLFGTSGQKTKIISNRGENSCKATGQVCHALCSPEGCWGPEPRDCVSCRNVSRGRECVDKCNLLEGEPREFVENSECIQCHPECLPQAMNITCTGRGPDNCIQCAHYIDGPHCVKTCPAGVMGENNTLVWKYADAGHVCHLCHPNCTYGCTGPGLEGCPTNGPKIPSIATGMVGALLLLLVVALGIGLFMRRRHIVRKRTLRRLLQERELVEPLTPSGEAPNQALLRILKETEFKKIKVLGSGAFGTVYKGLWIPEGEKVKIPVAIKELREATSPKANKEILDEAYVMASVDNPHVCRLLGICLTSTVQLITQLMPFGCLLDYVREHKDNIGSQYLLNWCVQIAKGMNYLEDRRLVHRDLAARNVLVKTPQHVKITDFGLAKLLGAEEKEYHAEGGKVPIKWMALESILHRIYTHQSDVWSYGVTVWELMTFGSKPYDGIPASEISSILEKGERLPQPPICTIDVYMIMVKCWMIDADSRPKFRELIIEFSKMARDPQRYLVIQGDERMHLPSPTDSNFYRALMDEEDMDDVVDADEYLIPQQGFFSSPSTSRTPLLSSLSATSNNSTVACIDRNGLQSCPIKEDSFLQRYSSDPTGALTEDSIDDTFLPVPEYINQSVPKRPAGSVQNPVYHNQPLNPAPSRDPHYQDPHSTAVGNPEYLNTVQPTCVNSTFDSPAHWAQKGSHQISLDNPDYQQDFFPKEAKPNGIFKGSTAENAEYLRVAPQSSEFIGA
# Outline: as §1
# [1] = Km ATP, read-out: IC50 del19/T790M/C797S (nM) Km ATP
# [2] = Km ATP, read-out: IC50 L858R/T790M/C797S (nM) Km ATP
# [3] = Km ATP, read-out: IC50 del19/C797S (nM) Km ATP
# [4] = Km ATP, read-out: IC50 L858R/C797S (nM) Km ATP
# [5] = Km ATP, read-out: IC50 WT (nM) Km ATP
# [6] = IC50 del19/T790M/C797S (nM) 100 μM ATP, 100 μM ATP
# [7] = IC50 L858R/T790M/C797S (nM) 100 μM ATP, 100 μM ATP
# [8] = IC50 del19/C797S (nM) 100 μM ATP, 100 μM ATP
# [9] = IC50 L858R/C797S (nM) 100 μM ATP, 100 μM ATP
# [10] = IC50 WT (nM) 100 μM ATP, 100 μM ATP
# Sequence of EGFR del19/T790M/C797S (P00533 with tags, fused parts or gaps DEL746-750/T790M/C797S): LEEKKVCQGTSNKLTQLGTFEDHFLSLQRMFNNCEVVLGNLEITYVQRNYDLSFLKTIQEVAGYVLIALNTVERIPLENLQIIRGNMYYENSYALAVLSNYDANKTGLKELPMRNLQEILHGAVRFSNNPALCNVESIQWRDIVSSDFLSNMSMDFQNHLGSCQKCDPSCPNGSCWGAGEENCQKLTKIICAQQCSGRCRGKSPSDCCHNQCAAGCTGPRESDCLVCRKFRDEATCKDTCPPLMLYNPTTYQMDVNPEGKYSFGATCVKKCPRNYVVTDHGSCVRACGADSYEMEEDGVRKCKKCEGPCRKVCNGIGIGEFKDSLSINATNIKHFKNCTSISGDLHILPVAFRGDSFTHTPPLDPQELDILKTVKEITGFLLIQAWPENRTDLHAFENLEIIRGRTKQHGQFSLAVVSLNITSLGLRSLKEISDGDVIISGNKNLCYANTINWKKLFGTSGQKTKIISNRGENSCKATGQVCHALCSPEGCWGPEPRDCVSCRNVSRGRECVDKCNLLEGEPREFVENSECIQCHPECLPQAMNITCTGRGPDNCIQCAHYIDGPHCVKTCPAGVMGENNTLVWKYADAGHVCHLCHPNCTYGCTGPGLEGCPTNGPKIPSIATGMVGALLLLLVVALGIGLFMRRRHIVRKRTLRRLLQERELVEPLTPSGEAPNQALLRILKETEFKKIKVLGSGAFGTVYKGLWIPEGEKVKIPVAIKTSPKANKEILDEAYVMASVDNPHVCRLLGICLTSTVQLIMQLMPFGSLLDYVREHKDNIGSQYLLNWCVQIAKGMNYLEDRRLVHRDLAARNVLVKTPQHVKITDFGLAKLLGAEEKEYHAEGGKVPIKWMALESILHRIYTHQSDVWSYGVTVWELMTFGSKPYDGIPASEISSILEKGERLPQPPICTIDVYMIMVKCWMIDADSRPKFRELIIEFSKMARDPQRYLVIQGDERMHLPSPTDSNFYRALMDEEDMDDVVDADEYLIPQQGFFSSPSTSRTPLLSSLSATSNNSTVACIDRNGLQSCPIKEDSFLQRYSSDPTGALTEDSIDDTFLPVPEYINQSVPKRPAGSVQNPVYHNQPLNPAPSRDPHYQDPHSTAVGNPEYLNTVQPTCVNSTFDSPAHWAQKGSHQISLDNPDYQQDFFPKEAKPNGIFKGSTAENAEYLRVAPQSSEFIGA
Compound,"IC50 (EGFR del19/T790M/C797S; IC50 del19/T790M/C797S, 100 μM ATP) [nM]","IC50 (EGFR del19/T790M/C797S; Km ATP, read-out: IC50 del19/T790M/C797S, Km ATP) [nM]","IC50 (EGFR L858R/T790M/C797S; IC50 L858R/T790M/C797S, 100 μM ATP) [nM]","IC50 (EGFR L858R/T790M/C797S; Km ATP, read-out: IC50 L858R/T790M/C797S, Km ATP) [nM]","IC50 (EGFR del19/C797S; IC50 del19/C797S, 100 μM ATP) [nM]","IC50 (EGFR del19/C797S; Km ATP, read-out: IC50 del19/C797S, Km ATP) [nM]","IC50 (EGFR L858R/C797S; IC50 L858R/C797S, 100 μM ATP) [nM]","IC50 (EGFR L858R/C797S; Km ATP, read-out: IC50 L858R/C797S, Km ATP) [nM]","IC50 (EGFR wildtype (WT); IC50 WT, 100 μM ATP) [nM]","IC50 (EGFR wildtype (WT); Km ATP, read-out: IC50 WT, Km ATP) [nM]",IC50 (EGFR del19/T790M/C797S; [1]) [nM],IC50 (EGFR L858R/T790M/C797S; [2]) [nM],IC50 (EGFR del19/C797S; [3]) [nM],IC50 (EGFR L858R/C797S; [4]) [nM],IC50 (EGFR wildtype (WT); [5]) [nM],IC50 (EGFR del19/T790M/C797S; [6]) [nM],IC50 (EGFR L858R/T790M/C797S; [7]) [nM],IC50 (EGFR del19/C797S; [8]) [nM],IC50 (EGFR L858R/C797S; [9]) [nM],IC50 (EGFR wildtype (WT); [10]) [nM]
"CC1(O)CCC(Nc2cc(Nc3ccnc(N4CCC(O)C(F)(F)C4)n3)ncc2-c2ccn(C(F)F)n2)CC1 (stereo not drawn) [Example 348, 1-(4-((5-(1-(Difluoromethyl)-1H-pyrazol-3-yl)-4-(((1s,4s)-4-hydroxy-4-methylcyclohexyl)amino)pyridin-2-yl)amino)pyrimidin-2-yl)-3,3-difluoropiperidin-4-ol]",3.5,0.5,0.6,0.2,134,134,149,14.6,> 10000,145,,,,,,,,,,
"COc1cc(-c2nccc(Nc3cc(N[C@H]4CC[C@@](C)(O)CC4)c(-c4ccn(C(F)F)n4)cn3)n2)ccn1 [Example 169, (1s,4s)-4-((5-(1-(Difluoromethyl)-1H-pyrazol-3-yl)-2-((2-(2-methoxypyridin-4-yl)pyrimidin-4-yl)amino)pyridin-4-yl)amino)-1-methylcyclohexan-1-ol]",,,,,,,,,,,20.1,15.5,110,43.4,325,,,,,
"O=S(=O)(C1CC1)n1cc(-c2nccc(Nc3cc(NC4CC(O)C4)c(-c4ccn(C(F)F)n4)cn3)n2)cn1 (stereo not drawn) [Example 40, 3-((2-((2-(1-(Cyclopropylsulfonyl)-1H-pyrazol-4-yl)pyrimidin-4-yl)amino)-5-(1-(difluoromethyl)-1H-pyrazol-3-yl)pyridin-4-yl)amino)cyclobutan-1-ol]",,,,,,,,,,,0.5,0.3,2.3,4.5,36.3,0.5,2,7.6,174,> 10000
"O=S(=O)(C1CC1)n1cc(-c2nccc(Nc3cc(N[C@H]4CC[C@H](CCO)CC4)c(-c4ccn(CC(F)(F)F)n4)cn3)n2)cn1 [Example 270, 2-((1r,4r)-4-((2-((2-(1-(Cyclopropylsulfonyl)-1H-pyrazol-4-yl)pyrimidin-4-yl)amino)-5-(1-(2,2,2-trifluoroethyl)-1H-pyrazol-3-yl)pyridin-4-yl)amino)cyclohexyl)ethan-1-ol]",,,,,,,,,,,7.2,0.7,23.6,11.2,620,2.1,1.2,2700,35.4,> 10000
"Cc1nn(-c2cnc(Nc3ccnc(-c4cnn(S(=O)(=O)C5CC5)c4)n3)cc2N[C@H]2CC[C@@](C)(O)CC2)cc1C(F)(F)F [Example 182, (1s,4s)-4-((2-((2-(1-(Cyclopropylsulfonyl)-1H-pyrazol-4-yl)pyrimidin-4-yl)amino)-5-(3-methyl-4-(trifluoromethyl)-1H-pyrazol-1-yl)pyridin-4-yl)amino)-1-methylcyclohexan-1-ol]",,,,,,,,,,,0.8,0.8,26.8,116,781,,,,,
"O=S(=O)(C1CC1)n1cc(-c2nccc(Nc3cc(N[C@H]4CC[C@](O)(CO)CC4)c(-c4ccn(C(F)F)n4)cn3)n2)cn1 [Example 188, (1s,4s)-4-((2-((2-(1-(Cyclopropylsulfonyl)-1H-pyrazol-4-yl)pyrimidin-4-yl)amino)-5-(1-(difluoromethyl)-1H-pyrazol-3-yl)pyridin-4-yl)amino)-1-(hydroxymethyl)cyclohexan-1-ol]",,,,,,,,,,,0.3,0.1,0.3,1.1,6.1,0.2,0.2,0.3,7.8,> 10000
"O=S(=O)(C1CC1)n1cc(-c2nccc(Nc3cc(N[C@H]4CCC[C@H](CO)C4)c(-c4ccn(CC(F)(F)F)n4)cn3)n2)cn1 [Example 271, ((1S,3S)-3-((2-((2-(1-(Cyclopropylsulfonyl)-1H-pyrazol-4-yl)pyrimidin-4-yl)amino)-5-(1-(2,2,2-trifluoroethyl)-1H-pyrazol-3-yl)pyridin-4-yl)amino)cyclohexyl)methanol]",,,,,,,,,,,0.6,0.5,10.3,4.6,50.1,1.4,1.4,122,8.7,> 10000
